Measurements reported in US20090227607A1, “DEAZAPURINES USEFUL AS INHIBITORS OF JANUS KINASES” (priority 2006, published 2009).

Tests used:
JAK-2 enzyme = JAK-2 enzyme (Homo sapiens, UniProt O60674); experiment: JAK2 Inhibition Assay; type: biochemical; conditions: 15 μM poly(Glu)4Tyr, 12 μM ATP, 25° C.
Procedure: (§1) Compounds were screened for their ability to inhibit JAK3 using the assay shown below. Reactions were carried out in a kinase buffer containing 100 mM HEPES (pH 7.4), 1 mM DTT, 10 mM MgCl2, 25 mM NaCl, and 0.01% BSA. Substrate concentrations in the assay were 5 μM ATP (200 uCi/μmole ATP) and 1 μM poly(Glu)4Tyr. Reactions were carried out at 25° C. and 1 nM JAK3.
(§2) To each well of a 96 well polycarbonate plate was added 1.5 μl of a candidate JAK3 inhibitor along with 50 μl of kinase buffer containing 2 μM poly(Glu)4Tyr and […]. This was then mixed and […] of kinase buffer containing 2 nM JAK3 enzyme was added to start the reaction. After 20 minutes at room temperature (25° C.), the reaction was stopped with 50 μl of 20% trichloroacetic acid (TCA) that also contained 0.4 mM ATP. The entire contents of each well were then transferred to a 96 well glass fiber filter plate using a TomTek Cell Harvester. After washing, 60 μl of scintillation fluid was added and ^33P incorporation detected on a Perkin Elmer TopCount.
The assays were as described above in Example 36 except that JAK-2 enzyme was used, the final poly(Glu)4Tyr concentration was 15 μM, and final ATP concentration was 12 μM.
(§3) Tables 5 and 6 depict enzyme inhibition data (Ki) for certain exemplary compounds. Compound numbers in Tables 5 and 6 correspond to those compounds depicted in Tables 1 and 2, respectively.

JAK3 = biological target: T1, JAK3 (Homo sapiens, UniProt P52333); experiment: JAK3 Inhibition Assay; type: biochemical; conditions: 1 μM poly(Glu)4Tyr, 5 μM ATP, 1 nM JAK3, 25° C.; read-out: JAK3 enzyme inhibition data (Ki)
T1 sequence (P52333 1-1124): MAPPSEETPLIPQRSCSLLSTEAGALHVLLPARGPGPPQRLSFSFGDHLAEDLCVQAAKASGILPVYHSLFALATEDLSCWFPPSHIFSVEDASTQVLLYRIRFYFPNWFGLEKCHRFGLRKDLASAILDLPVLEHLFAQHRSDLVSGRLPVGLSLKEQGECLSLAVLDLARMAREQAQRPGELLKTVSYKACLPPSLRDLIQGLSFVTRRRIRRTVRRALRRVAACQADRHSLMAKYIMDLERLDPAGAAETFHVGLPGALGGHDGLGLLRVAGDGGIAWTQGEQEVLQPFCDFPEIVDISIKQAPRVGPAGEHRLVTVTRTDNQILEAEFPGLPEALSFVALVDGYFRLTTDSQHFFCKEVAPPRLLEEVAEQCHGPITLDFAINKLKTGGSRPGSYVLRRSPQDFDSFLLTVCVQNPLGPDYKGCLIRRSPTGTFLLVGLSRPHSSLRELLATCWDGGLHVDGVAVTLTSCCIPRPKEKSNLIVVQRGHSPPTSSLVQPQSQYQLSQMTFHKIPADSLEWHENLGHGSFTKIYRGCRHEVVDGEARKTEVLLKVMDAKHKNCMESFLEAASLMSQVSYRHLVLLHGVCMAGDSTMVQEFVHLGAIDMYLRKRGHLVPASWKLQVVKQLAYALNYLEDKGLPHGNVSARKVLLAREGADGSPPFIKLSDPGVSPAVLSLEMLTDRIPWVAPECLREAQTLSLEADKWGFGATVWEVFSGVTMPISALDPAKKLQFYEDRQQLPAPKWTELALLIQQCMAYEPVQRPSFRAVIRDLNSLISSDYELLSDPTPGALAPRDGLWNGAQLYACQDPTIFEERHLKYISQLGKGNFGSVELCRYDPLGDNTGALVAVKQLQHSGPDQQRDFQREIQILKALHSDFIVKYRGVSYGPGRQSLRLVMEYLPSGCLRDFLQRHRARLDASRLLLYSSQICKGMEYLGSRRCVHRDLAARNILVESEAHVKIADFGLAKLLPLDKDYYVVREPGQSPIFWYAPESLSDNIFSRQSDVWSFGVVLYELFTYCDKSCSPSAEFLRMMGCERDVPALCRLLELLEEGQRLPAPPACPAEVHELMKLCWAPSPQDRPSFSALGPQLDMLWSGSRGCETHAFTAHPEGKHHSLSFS
Procedure: as §1, §2, §3

JAK-2 enzyme, sequence (O60674 whole entry, species assumed): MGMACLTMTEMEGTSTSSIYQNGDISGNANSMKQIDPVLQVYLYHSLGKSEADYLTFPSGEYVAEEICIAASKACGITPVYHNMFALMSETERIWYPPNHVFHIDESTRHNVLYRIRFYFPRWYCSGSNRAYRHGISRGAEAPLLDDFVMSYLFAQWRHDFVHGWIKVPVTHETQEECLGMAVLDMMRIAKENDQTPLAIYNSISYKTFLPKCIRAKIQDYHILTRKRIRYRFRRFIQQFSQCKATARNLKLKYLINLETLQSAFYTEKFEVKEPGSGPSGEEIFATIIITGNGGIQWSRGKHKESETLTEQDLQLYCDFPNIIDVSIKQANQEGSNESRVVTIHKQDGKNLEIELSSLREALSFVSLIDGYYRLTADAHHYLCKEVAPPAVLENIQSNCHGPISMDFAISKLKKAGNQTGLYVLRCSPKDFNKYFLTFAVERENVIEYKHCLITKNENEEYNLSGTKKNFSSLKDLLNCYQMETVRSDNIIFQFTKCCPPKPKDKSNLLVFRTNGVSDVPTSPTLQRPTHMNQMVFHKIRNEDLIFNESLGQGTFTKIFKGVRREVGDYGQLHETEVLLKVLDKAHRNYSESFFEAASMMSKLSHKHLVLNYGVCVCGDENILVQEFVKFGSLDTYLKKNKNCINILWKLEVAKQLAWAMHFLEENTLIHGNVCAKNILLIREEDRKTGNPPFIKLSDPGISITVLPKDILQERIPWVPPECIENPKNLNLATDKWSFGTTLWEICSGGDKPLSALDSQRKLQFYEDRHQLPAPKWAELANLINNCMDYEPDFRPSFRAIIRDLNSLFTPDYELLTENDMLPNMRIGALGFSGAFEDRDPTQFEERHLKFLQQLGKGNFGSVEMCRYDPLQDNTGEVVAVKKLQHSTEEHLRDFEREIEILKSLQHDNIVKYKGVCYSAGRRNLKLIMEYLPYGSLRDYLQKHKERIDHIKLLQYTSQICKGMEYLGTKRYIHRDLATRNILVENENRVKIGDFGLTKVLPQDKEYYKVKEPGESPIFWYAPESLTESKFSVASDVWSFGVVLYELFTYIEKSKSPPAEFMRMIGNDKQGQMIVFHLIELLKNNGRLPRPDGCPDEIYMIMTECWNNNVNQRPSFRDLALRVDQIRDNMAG

Row | Ki (JAK-2 enzyme) | Ki (JAK3) | SMILES
1 | 100 to 500 nM | 100 to 500 nM | Cc1c[nH]c2ncnc(-c3cnn(C)c3)c12 [Compound 160]
2 | < 100 nM | < 100 nM | O=C(c1ccc(-c2ncnc3[nH]ccc23)o1)N(CCC(F)(F)F)C1CCCC1 [Compound 193]
3 | < 100 nM | 100 to 500 nM | CCCCN(CC)C(=O)c1cc(-c2ncnc3[nH]cc(C)c23)c[nH]1 [Compound 201]
4 | < 100 nM | < 100 nM | CC#CCN(CC(C)C)C(=O)c1cc(-c2ncnc3[nH]ccc23)c[nH]1 [Compound 189]
5 | < 100 nM | < 100 nM | N#CCN(Cc1ccccc1)C(=O)c1cc(-c2ncnc3[nH]ccc23)c[nH]1 [Compound 111]
6 | < 100 nM | < 100 nM | O=C(c1cc(-c2ncnc3[nH]ccc23)co1)N(CC1CC1)CC(F)(F)F [Compound 231, N-(cyclopropylmethyl)-4-(7H-pyrrolo[2,3-d]pyrimidin-4-yl)-N-(2,2,2-trifluoroethyl)furan-2-carboxamide]
7 | < 100 nM | 100 to 500 nM | CCN(CCC#N)C(=O)c1cc(-c2ncnc3[nH]cc(C)c23)c[nH]1 [Compound 207]
8 | < 100 nM | 100 to 500 nM | COc1ccc(C(=O)Nc2nc(-c3ncnc4[nH]ccc34)cs2)cc1 [Compound 175]
9 | < 100 nM | < 100 nM | Cn1cc(-c2ncnc3[nH]ccc23)cc1C(=O)N(CCC#N)CC1CC1 [Compound 226]
10 | < 100 nM | < 100 nM | C=CCN(CC=C)C(=O)c1ccc(-c2ncnc3[nH]ccc23)o1 [Compound 217]
11 | < 100 nM | < 100 nM | N#CCCN(CC1CC1)C(=O)c1coc(-c2ncnc3[nH]ccc23)c1 [Compound 183]
12 | < 100 nM | < 100 nM | C=CCN(C(=O)CC(C)C)c1nc(-c2ncnc3[nH]ccc23)cs1 [Compound 128]
13 | < 100 nM | < 100 nM | O=C(NCc1ccccc1)c1cc(-c2ncnc3[nH]ccc23)c[nH]1 [Compound 214]
14 | < 100 nM | 100 to 500 nM | C[C@@H]1CC[C@@H](C)N1C(=O)c1cc(-c2ncnc3[nH]ccc23)cn1C [Compound 224]
15 | < 100 nM | 100 to 500 nM | COC(=O)[C@@H]1CC[C@H](C(=O)Nc2nc(-c3ncnc4[nH]ccc34)cs2)C1 [Compound 182]
16 | < 100 nM | 100 to 500 nM | CC(C)CCn1cc(-c2ncnc3[nH]cc(Cl)c23)cn1 [Compound 164]
17 | < 100 nM | < 100 nM | CC(C)CN(CCC#N)C(=O)c1cc(-c2ncnc3[nH]cc(Cl)c23)c[nH]1 [Compound 243]
18 | < 100 nM | 500 to 5000 nM | COCCN(C)C(=O)c1cc(-c2ncnc3[nH]ccc23)cn1C [Compound 233]
19 | < 100 nM | 100 to 500 nM | CCCCN(CCC)C(=O)c1cc(-c2ncnc3[nH]cc(C)c23)c[nH]1 [Compound 209]
20 | < 100 nM | 100 to 500 nM | Cn1cc(-c2ncnc3[nH]ccc23)cc1C(=O)N(CC1CCC1)CC(F)(F)F [Compound 238]
21 | < 100 nM | 100 to 500 nM | O=C(c1cc(-c2ncnc3[nH]ccc23)co1)N(CCC(F)(F)F)CC1CCC1 [Compound 250]
22 | < 100 nM | < 100 nM | CC(=O)N1CCC(C(=O)Nc2nc(-c3ncnc4[nH]ccc34)cs2)CC1 [Compound 169]
23 | < 100 nM | < 100 nM | CC[C@@H]1CC[C@@H](CC)N1C(=O)c1ccc(-c2ncnc3[nH]ccc23)o1 [Compound 194]
24 | < 100 nM | 100 to 500 nM | O=C(c1cc(-c2ncnc3[nH]ccc23)co1)N(CCC(F)(F)F)CC1CC1 [Compound 229, N-(cyclopropylmethyl)-4-(7H-pyrrolo[2,3-d]pyrimidin-4-yl)-N-(3,3,3-trifluoropropyl)furan-2-carboxamide]
25 | < 100 nM | 100 to 500 nM | COC(=O)C1C2C=CC(C2)C1C(=O)Nc1nc(-c2ncnc3[nH]ccc23)cs1 (stereo not drawn) [Compound 155]
26 | < 100 nM | < 100 nM | O=C(c1cc(-c2ncnc3[nH]cc(Cl)c23)c[nH]1)N(CC1CCC1)CC(F)(F)F [Compound 240]
27 | < 100 nM | 500 to 5000 nM | CCCN(C)C(=O)c1cc(-c2ncnc3[nH]ccc23)cn1C [Compound 234]

The remaining lines, values behind:

Row | SMILES | Ki (JAK-2 enzyme) | Ki (JAK3)
28 | CC(C(=O)NCC(F)(F)F)n1cc(-c2ncnc3[nH]ccc23)cn1 (stereo not drawn) [Compound 91] | < 100 nM | < 100 nM
29 | CN(Cc1cccnc1)C(=O)c1cc(-c2ncnc3[nH]ccc23)c[nH]1 [Compound 49] | < 100 nM | 100 to 500 nM
30 | O=C(c1cc(-c2ncnc3[nH]ccc23)c[nH]1)N1CCC(O)C1 (stereo not drawn) [Compound 56] | 100 to 500 nM | 500 to 5000 nM
31 | O=C(c1cc(-c2ncnc3[nH]ccc23)c[nH]1)N1CCCC1C(F)(F)F (stereo not drawn) [Compound 53] | < 100 nM | 100 to 500 nM
32 | CC(C)CC(=O)Nc1nc(-c2ncnc3[nH]ccc23)cs1 [Compound 31] | < 100 nM | < 100 nM
33 | N#CC1CCCN1C(=O)c1cc(-c2ncnc3[nH]ccc23)c[nH]1 (stereo not drawn) [Compound 52] | < 100 nM | 100 to 500 nM
34 | CCN(Cc1ccccc1)C(=O)c1cc(-c2ncnc3[nH]ccc23)c[nH]1 [Compound 30] | < 100 nM | < 100 nM
35 | O=C(NC1CCCC1)c1cc(-c2ncnc3[nH]ccc23)c[nH]1 [Compound 13] | < 100 nM | < 100 nM
36 | CC(C(=O)NCc1ccccc1)n1cc(-c2ncnc3[nH]ccc23)cn1 (stereo not drawn) [Compound 86] | 100 to 500 nM | 100 to 500 nM
37 | O=C(Nc1nc(-c2ncnc3[nH]ccc23)cs1)C1CCCC1O (stereo not drawn) [Compound 60] | < 100 nM | < 100 nM
38 | O=C(Nc1nc(-c2ncnc3[nH]ccc23)cs1)C(O)c1ccccc1 (stereo not drawn) [Compound 101] | < 100 nM | < 100 nM
39 | CC(C)CN(CC(C)C)C(=O)c1cc(-c2ncnc3[nH]ccc23)c[nH]1 [Compound 28] | < 100 nM | 100 to 500 nM
40 | CCCCN(CCC#N)C(=O)c1cc(-c2ncnc3[nH]ccc23)c[nH]1 [Compound 22] | < 100 nM | < 100 nM
41 | CC(C)NC(=O)C(C)n1cc(-c2ncnc3[nH]ccc23)cn1 (stereo not drawn) [Compound 78] | 100 to 500 nM | 100 to 500 nM
42 | COCCNC(=O)C(C)n1cc(-c2ncnc3[nH]ccc23)cn1 (stereo not drawn) [Compound 81] | 500 to 5000 nM | 500 to 5000 nM
43 | O=C(CCc1ccccc1)Nc1nc(-c2ncnc3[nH]ccc23)cs1 [Compound 68] | < 100 nM | < 100 nM
44 | C#CCNC(=O)c1cc(-c2ncnc3[nH]ccc23)c[nH]1 [Compound 14] | < 100 nM | 100 to 500 nM
45 | CCCC(C)n1cc(-c2ncnc3[nH]ccc23)cn1 (stereo not drawn) [Compound 38] | < 100 nM | < 100 nM
46 | C=CCCC(=O)Nc1nc(-c2ncnc3[nH]ccc23)cs1 [Compound 69] | < 100 nM | < 100 nM
47 | C=CCN(CC=C)C(=O)c1cc(-c2ncnc3[nH]ccc23)c[nH]1 [Compound 17] | < 100 nM | < 100 nM
48 | CN(C)C1CCN(C(=O)c2cc(-c3ncnc4[nH]ccc34)c[nH]2)C1 (stereo not drawn) [Compound 50] | 500 to 5000 nM | 500 to 5000 nM
49 | N#CCCN(Cc1cccnc1)C(=O)c1cc(-c2ncnc3[nH]ccc23)c[nH]1 [Compound 18] | < 100 nM | < 100 nM
50 | CCCn1cc(-c2ncnc3[nH]ccc23)cn1 [Compound 106] | < 100 nM | 100 to 500 nM
51 | CC(O)CNC(=O)C(C)n1cc(-c2ncnc3[nH]ccc23)cn1 (stereo not drawn) [Compound 80] | 500 to 5000 nM | 100 to 500 nM
